The values that follow are results of earlier work, collected in US20080124400A1, “Microparticles With High Loadings Of A Bioactive Agent” (Angiotech International AG, priority 2004, published 2008).

Series [1] concerns synoviocytes.
The subject of series [2] is normal chondrocytes and non-proliferating synoviocytes.
For series [3], the system named is T-cell.
Series [4] has as its system collagen induced arthritis. As to conditions: animal model.
The subject of series [5] is neutrophil.
Series [6] relates to AP-1.

As for `CC(=O)O[C@H]1C(=O)[C@@]2(C)[C@H]([C@H](OC(=O)c3ccccc3)[C@]3(O)C[C@H](OC(=O)[C@H](O)[C@@H](NC(=O)c4ccccc4)c4ccccc4)C(C)=C1C3(C)C)[C@]1(OC(C)=O)CO[C@@H]1C[C@@H]2O` [Paclitaxel, paclitaxel], the “proliferation and apoptosis of synoviocytes” value in series [1] was “prevents the proliferation of and induces apoptosis in synoviocytes”. In series [2], the “toxicity to non-proliferating cells” value is given as “non-toxic”. Moreover, the “T-cell response to stimuli and T-cell function” value in series [3] is “decreases T-cell response to stimuli, and inhibits T-cell function”. Further, the collagen induced arthritis result in series [4] is reported as “inhibits collagen induced arthritis”. Moreover, in series [5], the neutrophil activation entry is “inhibits neutrophil activation”. Further, the AP-1 transcription activity result in series [6] is listed as “inhibits AP-1 transcription activity”.
